Consider one compound from patent US20210361566A1, “FORMULATIONS OF 5-HYDROXY TRYPTOPHAN (5-HTP) FOR BETTER BIOAVAILABILITY FOR VARIOUS INDICATIONS” (National University of Singapore, priority 2018, published 2021).

Each structure is given as a SMILES string.

By bioavailability is commonly meant dose-corrected exposure relative to a reference, in per cent. As usually defined, the solubility is how much of the substance goes into solution per volume. Read a low solubility as little dissolved substance.

The conditions of series [1]: mice; cited from earlier work.
The conditions of series [2]: co-administration of 5-HTP and a peripheral decarboxylase inhibitor, in some cases; cited from earlier work.
Series [3] is described as follows: Absolute and regional intestinal bioavailability of 5-HTP in humans (oral, colonic, intravenous dosing; plasma LC-MS). It counts as in vivo. Conditions: both sexes, other: colonic (by colonoscopy), human, colonic 200 mg vs IV 50 mg, read-out: absolute bioavailability (F), colonic dosing. The procedure: Determination of absolute and regional intestinal bioavailability of 5-HTP in humans.
(§1) 5-HTP dosing: The free base form of 5-HTP was used (5-HTP has a water solubility of >10 mg/mL).
Colonic: 5-HTP free base saline solution 200 mg.
Intravenous: 5-HTP free base saline solution 50 mg.
Oral/Upper GI: Two 5-HTP gelatin tablets of 100 mg 5-HTP free base (200 mg total dose).
Subjects: Healthy male and female volunteers aged 18 to 65 years with a body mass index (BMI) of 19 to 28 were eligible for the study. Subjects were admitted to the investigational medical unit (IMU) 2 h before 5-HTP administration and remained at the IMU for 24 h following, for blood sampling and safety assessment. […]
Plasma samples analysis: Plasma samples were stored at −80° C. until analysis. 5-HTP and the metabolite 5-hydroxyindole-acetic-acid (5-HIAA) were quantified by liquid chromatography with mass-spectrometry detection.
Data analysis: The PK data were analyzed using noncompartmental (NCA) and compartmental (mixed effects) mathematical modelling approaches, to calculate area 5-HTP plasma under the curve (AUC) for each subject for each 5-HTP administration.
Results: The human bioavailability of 5-HTP via the various routes of administration above was established in human subjects by administering 5-HTP through these various routes and quantifying the resultant 5-HTP plasma levels at various time points. […]

Series [4] is described as follows: Water solubility of 5-HTP free base. To be noted: free base form. It counts as physicochemical. The method, then: as §1
Series [5] can be described thus: Release rate calculation Rinput=(Css×Vd×kel)/F, Scenario 1 (5-HTP without peripheral decarboxylase inhibitor). Set-up: species or system human. An excerpt: As calculated above, the relative upper GI tract:colon bioavailability was 20% (corresponding to an absolute colonic bioavailability of 4%). Based on the above, according to general teachings in the field of sustained-release drug delivery (Sutton S C. The use of gastrointestinal intubation studies for controlled release development. Br J Clin Pharmacol. 2009 September; 68[3]: 342-54) it is concluded that gastroretentive technologies are needed in order to achieve a desirable extended release profile of 5-HTP together with a desirable sustained and therapeutically active 5-HTP plasma level profile. Further, the determination of the oral bioavailability (Fpo) enables computation of the delivery rate of 5-HTP needed from the dosage form to achieve a given plasma level of 5-HTP at steady state. Moreover, computation of the resultant plasma levels of 5-HTP can be done for embodiments where a peripheral decarboxylase inhibitor (with different levels of effects on 5-HTP bioavailability and elimination half-life) is included in the dosage form.
The desired release rate profile was calculated as follows, for a dosage form disclosed in the present invention when administering 5-HTP without a peripheral decarboxylase inhibitor:
Substituting, we get Rinput=˜25 mg/hr, to achieve average steady-state plasma concentrations of 5-HTP of 1 mg/L (1000 ng/ml).

In the case of `N[C@@H](Cc1c[nH]c2ccc(O)cc12)C(=O)O` [5-HTP, 5-hydroxytryptophan], in series [1], the “absorption in the colon” value is “very effectively absorbed”. In series [2], the “increase of plasma 5-HTP levels by co-administration of a peripheral decarboxylase inhibitor” value is given as “one-fold to about fifteen-fold”. Besides, in series [3], the bioavailability is 4%. This compound also yielded a solubility in series [4] of more than 10000 µg/mL. For the same compound, the “Rinput, release rate of 5-HTP needed for average steady-state plasma concentration of 1 mg/L (1000 ng/ml)” value in series [5] (Scenario 1: F ~0.2 oral, Vd ~10 L, kel 0.462 h^−1, no peripheral decarboxylase inhibitor) is approximately 25 mg/h. The “kel, elimination rate constant” value in series [5] (calculated from plasma half-life of 1.5 hrs) was 0.462 h⁻¹.
